Here are results for 3 compounds from publication PMC8317065, “UPLC-MS/MS Method for Analysis of Endocannabinoid and Related Lipid Metabolism in Mouse Mucosal Tissue” (Frontiers in Physiology, 2021).

SMILES strings stand for the structures.

The test system of test [1] is MGL and ABHD6. The test can be described thus: MAG degradative enzyme activity assay with JZL 184 and WWL 70 together, lung protein isolates. It counts as biochemical. The settings on record: mouse lung. As for the experimental part:
(§1) Homogenized samples were centrifuged at 800 × g for 15 m at 4°C. The supernatant was collected in a 2.0 mL centrifuge tube and sonicated twice for 10 s. Samples underwent two sequential freeze thaw cycles using liquid N2. Samples were again centrifuged at 800 × g, 15 min, 4°C and the supernatant was collected. Total protein was then quantified via BCA assay and normalized between all samples. Protein isolations for each assay and each tissue were performed separately.
Substrate solutions were prepared by drying stock 19:2 MAG (50 nmol/reaction) under N2 steam and adding fatty acid free BSA (0.25%) and stock 50 mM Tris–HCl (pH = 8.0). The MGL substrate solution was then sonicated for 60 min while protein samples were prepared. […] MGL substrate solution was added to normalized protein (400 μL; 500 μL final volume) samples and incubated in a water bath at 37°C for 10 min (jejunum protein) or 30 min (lung protein). […] The products of the reaction were extracted via lipid extraction methods (see section “Lipid Extraction for Enzyme Assays”) and quantified via UPLC-MS/MS (see section “Quantitation of MAG Degradative Enzyme Activity Assay Products”).
Lipids were extracted using liquid-liquid extraction with chloroform (2.0 mL) followed by 0.8 mL 0.2-micron ultra-purified water. […] Products were detected and quantified via UPLC-MS/MS techniques (see section “UPLC-MS/MS Detection of Analytes”). […]

Test [2] concerns the target T1, FAAH (Mus musculus, UniProt O08914).
T1 construct: from tissue; host or cells: mouse (C57BL/6J) lung, 21,100 x g pellet
T1 sequence (O08914 1-579): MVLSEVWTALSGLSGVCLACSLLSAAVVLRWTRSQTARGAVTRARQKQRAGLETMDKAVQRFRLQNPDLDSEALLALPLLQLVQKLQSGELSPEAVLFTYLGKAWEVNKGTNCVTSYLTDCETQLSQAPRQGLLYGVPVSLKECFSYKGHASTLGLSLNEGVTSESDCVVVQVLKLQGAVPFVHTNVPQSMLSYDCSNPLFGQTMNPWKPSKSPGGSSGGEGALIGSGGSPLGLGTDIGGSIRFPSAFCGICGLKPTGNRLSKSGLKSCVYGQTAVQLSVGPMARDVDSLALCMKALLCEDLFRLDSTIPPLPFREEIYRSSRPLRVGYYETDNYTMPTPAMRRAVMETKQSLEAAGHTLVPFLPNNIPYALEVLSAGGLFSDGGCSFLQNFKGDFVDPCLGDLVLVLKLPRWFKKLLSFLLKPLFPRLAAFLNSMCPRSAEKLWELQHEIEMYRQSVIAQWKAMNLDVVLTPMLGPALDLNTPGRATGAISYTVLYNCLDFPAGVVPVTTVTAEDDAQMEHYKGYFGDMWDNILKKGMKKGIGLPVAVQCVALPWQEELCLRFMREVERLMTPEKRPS
Description: FAAH (FAE degradative enzyme) activity assay, UPLC-MS/MS, jejunum epithelium protein isolates. The format is biochemical. The note with it: jejunum epithelium protein 50 μg. The method, then:
(§2) Homogenized samples were centrifuged at 21,100 × g for 30 min at 4°C. The supernatant was discarded, and the pellets were resuspended in 750 μL of chilled 1x PBS (pH = 7.0). To ensure homogenous solution, lung samples were further homogenized using a sonic dismembranator using 8–10 root mean square (RMS) Watts of output power. Total protein was then quantified via BCA assay and normalized between all samples. Alternative protein isolation methods were required for FAAH isolation due to its subcellular localization to membranes of cytoplasmic organelles ([Gulyas et al., 2004]).
(§3) Substrate solutions were prepared by drying stock [^2H4]-PEA (5 nmol/reaction) under N2 steam and adding fatty acid free BSA (0.25%) and stock 50 mM Tris–HCl (pH = 8.0). The substrate solution was then bath sonicated for 60 min while protein samples were prepared. […] The products of the reaction were extracted via lipid extraction methods (see section “Lipid Extraction for Enzyme Assays”) and quantified via UPLC-MS/MS (see section “Quantitation of FAE Degradative Enzyme Activity”).
(§4) Lipids were extracted using liquid-liquid extraction with chloroform (2.0 mL) followed by 0.8 mL 0.2-micron ultra-purified water. […] Products were detected and quantified via UPLC-MS/MS techniques (see section “UPLC-MS/MS Detection of Analytes”).

Test [3] has as its target T1, FAAH. The test can be described thus: FAAH activity assay, UPLC-MS/MS, lung protein isolates. The format is biochemical. The settings on record: lung protein 10 μg. As for the experimental part:
as §2, §3, §4

In test [4] the test system is FAAH. Set-up: method as in Piomelli et al., 2006. The settings on record: rat brain membranes; ref Piomelli et al., 2006; read-out: IC50 reported for rat brain membranes; cited from earlier work.
The target in test [5] is T2, ABHD6 (Mus musculus, UniProt Q8R2Y0).
T2 construct: from tissue; host or cells: mouse (C57BL/6J) lung, 800 x g supernatant
T2 sequence (Q8R2Y0 1-336): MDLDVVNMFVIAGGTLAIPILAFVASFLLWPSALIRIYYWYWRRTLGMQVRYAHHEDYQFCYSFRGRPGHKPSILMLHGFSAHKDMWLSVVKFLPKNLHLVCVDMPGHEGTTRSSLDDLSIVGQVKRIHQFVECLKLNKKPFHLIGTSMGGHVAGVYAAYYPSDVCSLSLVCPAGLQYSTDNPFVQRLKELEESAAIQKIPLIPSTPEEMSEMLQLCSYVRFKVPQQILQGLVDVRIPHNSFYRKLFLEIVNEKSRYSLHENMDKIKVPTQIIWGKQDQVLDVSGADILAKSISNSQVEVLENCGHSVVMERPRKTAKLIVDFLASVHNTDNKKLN
The test can be described thus: MAG degradative enzyme activity assay with WWL 70, lung protein isolates. It counts as biochemical. The note with it: for MAG metabolism, product recovery (normalized response): lung protein 25 μg, WWL 70 alone. As for the experimental part: as §1
Substrate solutions were prepared by drying stock 19:2 MAG (50 nmol/reaction) under N2 steam and adding fatty acid free BSA (0.25%) and stock 50 mM Tris–HCl (pH = 8.0). The MGL substrate solution was then sonicated for 60 min while protein samples were prepared. […] MGL substrate solution was added to normalized protein (400 μL; 500 μL final volume) samples and incubated in a water bath at 37°C for 10 min (jejunum protein) or 30 min (lung protein). The reaction was stopped using 1.0 mL of chilled methanol containing the internal standard 17:1 FFA (5 nmol/reaction) and placed on ice. The products of the reaction were extracted via lipid extraction methods (see section “Lipid Extraction for Enzyme Assays”) and quantified via UPLC-MS/MS (see section “Quantitation of MAG Degradative Enzyme Activity Assay Products”).
Lipids were extracted using liquid-liquid extraction with chloroform (2.0 mL) followed by 0.8 mL 0.2-micron ultra-purified water. Samples were centrifuged (1500 × g, 5 min, 4°C) and the lower organic phase was collected. The samples were further purified, as previously described ([Batugedara et al., 2018]), via open-bed silica gel column chromatography which was washed with a 9:1 chloroform:methanol mixture to elute MAGs, FAEs, and FFAs for collection. Eluates were dried under N2 steam (99.998% pure) and resuspended in 0.2 mL of methanol:chloroform (1:1). Products were detected and quantified via UPLC-MS/MS techniques (see section “UPLC-MS/MS Detection of Analytes”).
Data was acquired using equipment described above (see section “UPLC-MS/MS Detection of Analytes”) and eluted by a gradient of water and methanol (containing 0.25% acetic acid, 5 mM ammonium acetate) at a flow rate of 0.4 mL/min and gradient: 90% methanol 0.0–0.1 min, 90–100% methanol 0.1–2.0 min, 100% methanol 2.0–2.1 min, 100–90% methanol 2.1–2.2 min, and 90% methanol 2.2–2.5 min. […] Lipids were quantified using a dilution series detecting deprotonated molecular ions in selected ion reading (SIR) mode (variable amounts of product 19:2 FFA versus fixed amount of internal standard 17:1 FFA). Extracted ion chromatograms for SIR masses were used to quantify analytes: 19:2 FFA (m/z = 293.2) product of MGL enzyme assay and 17:1 FFA (m/z = 267.2) as internal standard. Signal to noise ratio was >10 for all quantitated results.

Test [6] deals with ABHD6. Set-up: method as in Li et al., 2007. The settings on record: fibroblast cell line; ref Li et al., 2007; read-out: IC50 reported for a fibroblast cell line; cited from earlier work.
Where [7] appears, read: highest inhibitor concentration of range (1,000 nM).
Setting [8] is: lowest inhibitor concentration of range (3 nM).

As to `O=C(Oc1ccc([N+](=O)[O-])cc1)N1CCC(C(O)(c2ccc3c(c2)OCO3)c2ccc3c(c2)OCO3)CC1` [JZL 184], the “MAG metabolism (normalized response)” value stood at 22.32 ± 2.73% in test [1] (10 μM WWL 70 plus JZL 184, highest concentration of range (10,000 nM)) and 94.25 ± 6.64% in test [1] (10 μM WWL 70 plus JZL 184, lowest concentration of range (3 nM)).

`NC(=O)c1cccc(-c2cccc(OC(=O)NC3CCCCC3)c2)c1` [URB597]: the “FAAH activity (normalized response)” value in test [2] (setting [7]) is recorded as 7.37 ± 0.001%; in test [2] (setting [8]), 94.95 ± 7.89%. Besides, the entries for the “FAE metabolism (normalized response)” value in test [3] (setting [7]) and in test [3] (setting [8]) were 4.15 ± 0.46% and 90.11 ± 8.58%, respectively. For the same compound, the IC50 in test [4] is […].

Take `CN(Cc1cccc(-c2ccncc2)c1)C(=O)Oc1ccc(-c2ccc(C(N)=O)cc2)cc1` [WWL 70]: the “MAG metabolism, product recovery (normalized response)” value in test [5] (highest concentration of range (10,000 nM)) is 33.07 ± 1.72%; in test [5] (lowest concentration of range (3 nM)) it was 87.89 ± 13.69%. For the same compound, the IC50 in test [5] (mouse lung protein isolates 25 μg, WWL 70 3-10,000 nM alone, inhibition incomplete, read-out: IC50, inhibition of MAG metabolism (ABHD6 activity)) was 780 nM; in test [6], […]. For the same compound, the “blockade of MAG degradation, maximum” value in test [5] (protein isolates from lungs of healthy male mice, concentration-dependent) is given as “up to 66%”.
